Tests used:
[1] = system: NIH 3T3 fibroblasts; experiment: Cell chemotaxis assay (modified Boyden's chamber), NIH 3T3 fibroblasts; type: cell-based
Description: (§1) NIH/3T3 fibroblasts at passage 126 were purchased from the American Type Culture Collection, Rockville, Md. Cultures from passages 129-133 were used in the chemotaxis assays. Cultures were propagated in DMEM supplemented with 10%. Calf serum and approximately 1% antibiotic antimycotic solution. Human dermal fibroblasts (HDFs) were purchased from Clonetics, Inc. (San Diego, Calif.) at passage 2. Cultures from passages 3-5 were used in the chemotaxis assays. Cultures were cultivated in DMEM supplemented with 20% FBS (Hyclone Laboratories, Inc., Logan, Utah) and approximately 1% antibiotic antimycotic solution (Gibco, Grand Island, N.Y.).
The procedure used to determine cellular chemotaxis was a combination of two known methodologies. A modification of Boyden's chamber was used as follows: Millicell-PCF (Millipore, Inc., Bedford, Mass.) (12.0 μm) 12.0 mm diameter inserts were placed in individual wells of 24 well plates to create the upper and lower chemotaxis chambers. Chemotaxis results were arrived at by performing checkerboard analysis for every combination of cells and growth factors. […] Briefly, cultures were trypsanized and placed in DMEM+0.1% Bovine Serum Albumin (BSA) (Sigma Chemical Co., St. Louis, Mo.) for approximately one hour at 37° C. in a 5% CO2 humidified chamber. Tow to 2.5×10^5 cells in 50 μl were added per insert to the upper chamber of the setup of the 24 well plates. Treatments were added as mentioned above. The assay was kept at 37° C. in a 5% CO2 humidified chamber for 4 hours. All combinations tested were performed in triplicate. At the end of 4 hours, the plates were removed from the incubator and the filters were stained following the protocol for staining included with the Millicell-PCT inserts. Briefly, the fluid surrounding the inside and outside of the Millicell-PCF inserts were removed. Three percent glutaraldehyde (Sigma Chemical Co., St. Louis, Mo.) was added to the outside and inside of the inserts for approximately 20 minutes. Following removal of the 3.0% glutaraldehyde, 0.5% Triton X-100 (E.M. Science, Cherry Hill, N.J.) was added for 5-7 minutes. On removal of the 0.5% Triton X-100, Fisher's Hematoxylin Solution Gill's Formulation (Fisher Scientific, Newark, Del.) No.1 was added for about 10 minutes. This solution was washed off in running distilled water for about 5 minutes. Using a cotton swab the upper side of the filter was swabbed to remove cells which had not migrated. Filters, were mounted lower side facing up on slides in Crystal Mount™ (Biomedia, Inc., Foster City, Calif.) solution and 10 random field were counted per slide both visually at 400× and at 200×using an Image Analyzing System to automate the enumeration of the cells on the underside of the filters.
(§2) As required, checkerboard analysis was carried out to determine random migration, and positive and negative chemotaxis. Growth factors were added to the upper and/or lower chambers to observe whether cells migrated towards the GF alone (chemotaxis), whether migration was random irrespective of whether the growth factor was added to the upper or lower well (chemokinesis) or whether cell migration was against the chemotactic gradient (negative chemotaxis).

[2] = system: human dermal fibroblasts (HDFs); experiment: Cell chemotaxis assay (modified Boyden's chamber), human dermal fibroblasts; type: cell-based
Description: as §1
The procedure used to determine cellular chemotaxis was a combination of two known methodologies. A modification of Boyden's chamber was used as follows: Millicell-PCF (Millipore, Inc., Bedford, Mass.) (12.0 μm) 12.0 mm diameter inserts were placed in individual wells of 24 well plates to create the upper and lower chemotaxis chambers. Chemotaxis results were arrived at by performing checkerboard analysis for every combination of cells and growth factors. Concentrations ranging from 0.1, 1, 10, 100 ng/ml with/without added heparin (10 U/ml) were used for FGF-1, FGF-2 (no heparin) and FGF-4 with all the cell types mentioned in the materials section. Briefly, cultures were trypsanized and placed in DMEM+0.1% Bovine Serum Albumin (BSA) (Sigma Chemical Co., St. Louis, Mo.) for approximately one hour at 37° C. in a 5% CO2 humidified chamber. Tow to 2.5×10^5 cells in 50 μl were added per insert to the upper chamber of the setup of the 24 well plates. Treatments were added as mentioned above. The assay was kept at 37° C. in a 5% CO2 humidified chamber for 4 hours. All combinations tested were performed in triplicate. At the end of 4 hours, the plates were removed from the incubator and the filters were stained following the protocol for staining included with the Millicell-PCT inserts. Briefly, the fluid surrounding the inside and outside of the Millicell-PCF inserts were removed. Three percent glutaraldehyde (Sigma Chemical Co., St. Louis, Mo.) was added to the outside and inside of the inserts for approximately 20 minutes. Following removal of the 3.0% glutaraldehyde, 0.5% Triton X-100 (E.M. Science, Cherry Hill, N.J.) was added for 5-7 minutes. On removal of the 0.5% Triton X-100, Fisher's Hematoxylin Solution Gill's Formulation (Fisher Scientific, Newark, Del.) No.1 was added for about 10 minutes. This solution was washed off in running distilled water for about 5 minutes. Using a cotton swab the upper side of the filter was swabbed to remove cells which had not migrated. Filters, were mounted lower side facing up on slides in Crystal Mount™ (Biomedia, Inc., Foster City, Calif.) solution and 10 random field were counted per slide both visually at 400× and at 200×using an Image Analyzing System to automate the enumeration of the cells on the underside of the filters.
as §2

HBGF-1: heparin binding growth factor-1, also known as ECGF and FGF-1; recombinant HBGF-1β expressed in E. coli
checkerboard analysis [1]: chemotactic | concentration of maximum stimulation of migration ([1]; FGF-1 in the presence of 10 U/ml heparin): 10 ng/mL | migrated cells (checkerboard analysis) ([1]; lower 0 ng/ml, upper 1 ng/ml): 53.93 +/− 4.152 | migrated cells (checkerboard analysis) ([1]; lower 0 ng/ml, upper 5 ng/ml): 27.27 +/− 3.873 | migrated cells (checkerboard analysis) ([1]; lower 0 ng/ml, upper 10 ng/ml): 25.96 +/− 4.151 | migrated cells (checkerboard analysis) ([1]; lower 1 ng/ml, upper 0 ng/ml): 59.46 +/− 6.89 | migrated cells (checkerboard analysis) ([1]; lower 1 ng/ml, upper 1 ng/ml): 36.9 +/− 5.728 | migrated cells (checkerboard analysis) ([1]; lower 1 ng/ml, upper 5 ng/ml): 22.1 +/− 9.232 | migrated cells (checkerboard analysis) ([1]; lower 1 ng/ml, upper 10 ng/ml): 35.86 +/− 2.074 | migrated cells (checkerboard analysis) ([1]; lower 5 ng/ml, upper 0 ng/ml): 64.867 +/− 1.75 | migrated cells (checkerboard analysis) ([1]; lower 5 ng/ml, upper 1 ng/ml): 41.44 +/− 1.866 | migrated cells (checkerboard analysis) ([1]; lower 5 ng/ml, upper 5 ng/ml): 24.84 +/− 4.337 | migrated cells (checkerboard analysis) ([1]; lower 5 ng/ml, upper 10 ng/ml): 41.6 +/− 6.717 | migrated cells (checkerboard analysis) ([1]; lower 10 ng/ml, upper 0 ng/ml): 70.83 +/− 2.752 | migrated cells (checkerboard analysis) ([1]; lower 10 ng/ml, upper 1 ng/ml): 39.73 +/− 2.428 | migrated cells (checkerboard analysis) ([1]; lower 10 ng/ml, upper 5 ng/ml): 39.73 +/− 2.428 | migrated cells (checkerboard analysis) ([1]; lower 10 ng/ml, upper 10 ng/ml): 41.83 +/− 6.879 | checkerboard analysis [2]: chemotactic | maximal migratory response over negative control [2]: 18 fold | migrated cells (checkerboard analysis) ([2]; lower 0 ng/ml, upper 0.1 ng/ml): 48. +/− 1.965 | migrated cells (checkerboard analysis) ([2]; lower 0 ng/ml, upper 1 ng/ml): 1.3 +/− 0.351 | migrated cells (checkerboard analysis) ([2]; lower 0 ng/ml, upper 10 ng/ml): 4.6 +/− 2.424 | migrated cells (checkerboard analysis) ([2]; lower 0 ng/ml, upper 100 ng/ml): 2.4 +/− 2.59 | migrated cells (checkerboard analysis) ([2]; lower 0.1 ng/ml, upper 0 ng/ml): 66.46 +/− 3.304 | migrated cells (checkerboard analysis) ([2]; lower 0.1 ng/ml, upper 0.1 ng/ml): 3.5 +/− 1.550 | migrated cells (checkerboard analysis) ([2]; lower 0.1 ng/ml, upper 1 ng/ml): 22.0 +/− 6.621 | migrated cells (checkerboard analysis) ([2]; lower 0.1 ng/ml, upper 10 ng/ml): 9.7 +/− 7.758 | migrated cells (checkerboard analysis) ([2]; lower 0.1 ng/ml, upper 100 ng/ml): 11.6 +/− 8.609 | migrated cells (checkerboard analysis) ([2]; lower 1 ng/ml, upper 0 ng/ml): 90.0 +/− 5.776 | migrated cells (checkerboard analysis) ([2]; lower 1 ng/ml, upper 0.1 ng/ml): 27.7 +/− 8.10 | migrated cells (checkerboard analysis) ([2]; lower 1 ng/ml, upper 1 ng/ml): 52.6 +/− 2.775 | migrated cells (checkerboard analysis) ([2]; lower 1 ng/ml, upper 10 ng/ml): 9.7 +/− 3.553 | migrated cells (checkerboard analysis) ([2]; lower 1 ng/ml, upper 100 ng/ml): 1.83 +/− 2.2 | migrated cells (checkerboard analysis) ([2]; lower 10 ng/ml, upper 0 ng/ml): 92.4 +/− 29.307 | migrated cells (checkerboard analysis) ([2]; lower 10 ng/ml, upper 0.1 ng/ml): 55.1 +/− 7.151 | migrated cells (checkerboard analysis) ([2]; lower 10 ng/ml, upper 1 ng/ml): 44.2 +/− 11.844 | migrated cells (checkerboard analysis) ([2]; lower 10 ng/ml, upper 10 ng/ml): 16.2 +/− 4.781 | migrated cells (checkerboard analysis) ([2]; lower 10 ng/ml, upper 100 ng/ml): 21.2 +/− 6.42 | migrated cells (checkerboard analysis) ([2]; lower 100 ng/ml, upper 0 ng/ml): 65.4 +/− 22.055 | migrated cells (checkerboard analysis) ([2]; lower 100 ng/ml, upper 0.1 ng/ml): 53.7 +/− 7.3118 | migrated cells (checkerboard analysis) ([2]; lower 100 ng/ml, upper 1 ng/ml): 54.9 +/− 18.599 | migrated cells (checkerboard analysis) ([2]; lower 100 ng/ml, upper 10 ng/ml): 49.166 +/− 9.152 | migrated cells (checkerboard analysis) ([2]; lower 100 ng/ml, upper 100 ng/ml): 4.66 +/− 3.3

— patent publication USRE39192E1, “Supplemented and unsupplemented tissue sealants, methods of their production and use” (American National Red Cross, priority 1990, dated 2006)
